Target: T1, Jagged1 (Homo sapiens, UniProt P78504)
T1 construct: gene JAG1; full-length extracellular domain (C2 to EGF16, 1277-JG-050, R&D Systems) tagged with an Fc-tag (Jagged1-Fc)
Assay: label-free microscale thermophoresis (MST)
Type: binding

T1 sequence (P78504 34-1067 limits assumed): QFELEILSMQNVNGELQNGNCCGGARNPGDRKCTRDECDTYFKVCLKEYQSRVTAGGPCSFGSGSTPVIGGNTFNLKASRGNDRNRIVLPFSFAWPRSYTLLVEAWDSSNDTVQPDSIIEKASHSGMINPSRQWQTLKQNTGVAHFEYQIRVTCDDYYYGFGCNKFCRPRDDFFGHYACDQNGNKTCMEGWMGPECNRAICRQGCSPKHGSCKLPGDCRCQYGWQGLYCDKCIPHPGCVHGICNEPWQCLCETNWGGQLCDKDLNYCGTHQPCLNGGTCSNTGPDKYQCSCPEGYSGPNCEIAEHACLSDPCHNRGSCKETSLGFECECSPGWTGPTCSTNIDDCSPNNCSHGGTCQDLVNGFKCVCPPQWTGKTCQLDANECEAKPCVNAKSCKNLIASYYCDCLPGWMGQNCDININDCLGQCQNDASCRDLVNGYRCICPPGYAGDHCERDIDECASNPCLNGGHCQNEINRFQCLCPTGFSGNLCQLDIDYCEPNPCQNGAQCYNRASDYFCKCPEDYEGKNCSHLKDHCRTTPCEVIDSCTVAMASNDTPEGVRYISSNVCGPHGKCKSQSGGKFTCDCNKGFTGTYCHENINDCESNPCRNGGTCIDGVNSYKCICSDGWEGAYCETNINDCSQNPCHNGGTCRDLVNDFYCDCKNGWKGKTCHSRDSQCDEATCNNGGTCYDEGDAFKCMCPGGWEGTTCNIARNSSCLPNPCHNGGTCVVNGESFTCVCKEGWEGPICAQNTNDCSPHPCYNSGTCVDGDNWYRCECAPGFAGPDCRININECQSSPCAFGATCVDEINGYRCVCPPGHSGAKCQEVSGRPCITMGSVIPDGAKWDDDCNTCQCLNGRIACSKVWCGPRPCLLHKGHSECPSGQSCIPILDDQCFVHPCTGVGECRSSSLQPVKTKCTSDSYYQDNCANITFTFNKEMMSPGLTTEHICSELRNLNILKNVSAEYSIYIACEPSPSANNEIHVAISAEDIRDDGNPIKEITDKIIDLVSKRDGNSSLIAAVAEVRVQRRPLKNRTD

Kd: 28.4 ± 6.6 µM
SMILES: [N-]=[N+]=N[C@]1(CO)O[C@@H](n2ccc(N)nc2=O)[C@@H](F)[C@@H]1O [FNC, 2′-deoxy-2′-β-fluoro-4′-azidocytidine]

Reference: publication PMC12154575, “Azvudine Suppresses Epithelial–Mesenchymal Transition in Hepatocellular Carcinoma by Targeting the Notch–HEY Signalling Pathway” (International Journal of Molecular Sciences, 2025)
